Like-named read-outs stand apart in the source and are kept apart here.
Key:
BRD4-2 = BRD4-2 (Homo sapiens (Human), UniProt O60885); assay: BRD4-2 Ligand KI assay (TR-FRET, Cy5 labeled ligand displacement); assay type: binding
Protocol: (§1) BRD4-1 Ligand KI and BRD4-2 Ligand KI Assays
(§2) Binding of the two tandem bromodomains, BRD4-I and BRD4-2, to a Cy5 labeled probe/ligand (Compound 1020-501) were measured using a homogeneous time resolved fluorescence resonance energy transfer (TR-FRET) assay.
(§3) The labeled ligand specifically binds BRD4-1 and BRD4-2 and can be displaced by a small molecule inhibitor that shares a similar or overlapping binding site. BRD4-I and BRD4-2 were expressed and purified from Escherichia coli as N-terminal His6, tagged proteins. A Eu-cryptate labeled anti-His antibody (Perkin Elmer) was used to specifically bind BRD4. […] Assays were performed in 50 mM Hepes (pH 7.5), 150 mM NaCl, 0.1 mg/ml BSA, 0.01% (v/v) Brij, 0.5% (v/v) DMSO and 10 nM labeled ligand at the following concentrations for each BRD4 isoform: 2 nM BRD4-1 and 0.5 nM BRD4-2. After an assay reaction time of 60 minutes at 25° C., binding was measured with 2 nM Eu-cryptate labeled anti-His antibody. TR-FRET signal was detected on an Envision plate reader (Ex: 320 nm; Em: 615/665 nm; 100 μs delay and 200 μs read window). […] All IC50 values represent geometric mean values of a minimum of four determinations. The IC50 values were converted to Ki values (dissociation constant for BRD4-inhibitor complex) using the Cheng and Prusoff equation for a competitive inhibitor mode of action. These assays generally produced results within 3-fold of the reported mean.

BRD4-1 = BRD4-1 (Homo sapiens (Human), UniProt O60885); assay: BRD4-1 Ligand KI assay (TR-FRET, Cy5 labeled ligand displacement); assay type: binding
Protocol: as §1, §2, §3

MT-4 cells = assay: MT-4 proliferation assay; assay type: cell-based, human; conditions: Homo sapiens, MT4, 120 h; Table 1; 5 days, Cell Titer Glo; method text calls it EC50; read-out: MT4 Assay, (IC50)
Protocol: MT-4 Proliferation Assay:
Compounds were tested in a standardized high-throughput 384-well assay format. Each compound was serially diluted 3-fold in 100% DMSO in polypropylene 384-well plates using a Biomek FX Workstation, and 0.4 μL compound added to an assay plate containing 40 μL RPMI media. Compounds were arranged in a horizontal pattern, with 10 concentrations per compound, and 8 compounds added per plate. Due to low DMSO tolerability, the final DMSO concentration never exceeded 0.5% (v/v). Each assay plate contained 10 μM Puromycin and 0.5% DMSO in RPMI-1640 as positive and negative controls respectively. MT-4 cells (HTLV-1 transformed, human T lymphoblastoid cells, NIH Aids Reagent program) were added in volumes of 35 μL per well and 2,000 cells per well using a Biotek uFlow Workstation (Biotek, Winooski, Vt.), and the plates subsequently incubated for 5 days at 37° C. in an incubator set at 5% CO2 and 90% humidity.
After 5 days, 22 μL Cell Titer Glo (Promega) was added to the assay plates with a Biotek uFlow Workstation. Plates were subsequently placed on a Perkin Elmer Envision Plate Reader for 5 minutes before the luminescence signal was read.

[1] = 0.5 nM BRD4-2, 10 nM labeled ligand, IC50 converted to Ki by Cheng and Prusoff
[2] = 2 nM BRD4-1, 10 nM labeled ligand, IC50 converted to Ki by Cheng and Prusoff

Question: How did the IC50 (BRD4-2; [1]) turn out when `Cc1noc(C)c1-c1cc(C(O)(c2cccnn2)C2CCC(C)(C)O2)c2nc(C3CC3)[nH]c2c1` (single isomer, unassigned) [Compound 1020-298, (2-cyclopropyl-6-(3,5-dimethylisoxazol-4-yl)-1H-benzo[d]imidazol-4-yl)(5,5-dimethyltetrahydrofuran-2-yl)(pyridazin-3-yl)methanol] was run?
Answer: The IC50 was 3.6 nM.

Question: What about the IC50 (BRD4-1; [2]) of the same molecule?
Answer: The IC50 was 5.4 nM.

Question: With `Cc1noc(C)c1-c1cc(C(O)(c2cccnn2)C2CCCO2)c2nc(C3CC3)[nH]c2c1` (single isomer, unassigned) [Compound 1020-289, (2-cyclopropyl-6-(3,5-dimethylisoxazol-4-yl)-1H-benzo[d]imidazol-4-yl)(pyridazin-3-yl)(tetrahydrofuran-2-yl)methanol] as the molecule, how does the IC50 (BRD4-2; [1]) read?
Answer: The IC50 was 2 nM.

Question: And the IC50 (BRD4-1; [2])?
Answer: Its IC50 is 2 nM.

Question: Which IC50 (MT-4 cells) does the source give for `Cc1noc(C)c1-c1cc(C(C)c2ccc(F)cc2)c2[nH]c(C3CC3)nc2c1` (stereo not shown) [Compound 1020-44, 4-(2-Cyclopropyl-4-(1-(4-fluorophenyl)ethyl)-1H-benzo[d]imidazol-6-yl)-3,5-dimethylisoxazole] here?
Answer: Its IC50 is 86.1 nM.

Question: How did the IC50 (MT-4 cells) turn out when `Cc1ccc2ncccc2c1-c1cc(-c2c(C)noc2C)cc2nc(C3CC3)n(C)c12` [Compound 1020-74, 4-(2-Cyclopropyl-1-methyl-7-(6-methylquinolin-5-yl)-1H-benzo[d]imidazol-5-yl)-3,5-dimethylisoxazole] was run?
Answer: Its IC50 is 15.3 nM.

Question: For `Cc1n[nH]c(C)c1-c1cc(-c2c(C)noc2C)cc2nc(C3CC3)n(C)c12` [Compound 1020-72, 4-(2-cyclopropyl-7-(3,5-dimethyl-1H-pyrazol-4-yl)-1-methyl-1H-benzo[d]imidazol-5-yl)-3,5-dimethylisoxazole], which IC50 (MT-4 cells) is on record?
Answer: The IC50 was 6.5 nM.

Question: What does the source list for `Cc1noc(C)c1-c1cc(C(O)(c2ccccn2)c2ncccn2)c2nc(C3CC3)[nH]c2c1` (racemic) [Compound 1020-239, (R) and (S)-(2-cyclopropyl-6-(3,5-dimethylisoxazol-4-yl)-1H-benzo[d]imidazol-4-yl)(pyridin-2-yl)(pyrimidin-2-yl)methanol]?
Answer: IC50 (BRD4-2): 6 nM; IC50 (BRD4-1): 5.9 nM

Question: Which IC50 (MT-4 cells) does the source give for `Cc1noc(C)c1-c1cc(NC2CCCC2)c2nc(C3CC3)[nH]c2c1` [Compound 1020-50, N-Cyclopentyl-2-cyclopropyl-6-(3,5-dimethylisoxazol-4-yl)-1H-benzo[d]imidazol-4-amine] here?
Answer: Its IC50 is 353 nM.
